From PubChem BioAssay (NCI)
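Where inhibition never reached the appropriate level, the endpoint shown equals the highest concentration tested. Otherwise, values were interpolated linearly from a five-concentration, 48-hour dose response in 96-well plates. TGI is the concentration that stops growth completely.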

How the values were obtained:
Test in all cases: DTP human tumour cell line panel, 48 h
[1] = system: HCT-15 colon
[2] = system: OVCAR-5 ovarian
[3] = system: UACC-257 melanoma
[4] = system: HS 578T breast
[5] = system: SF-268 CNS
[6] = system: MDA-N
[7] = system: NCI-H522 lung
[8] = system: CCRF-CEM leukemia
[9] = system: SK-MEL-28 melanoma
[10] = system: SN12C renal

Structure (SMILES) | TGI [1] | TGI [2] | TGI [3] | TGI [4] | TGI [5] | TGI [6] | TGI [7] | TGI [8] | TGI [9] | TGI [10]
CCCCCCCCCCCCOCCOCCOCCOCCOCCOCC(=O)NC(Cc1ccccc1)C(=O)Oc1ccc([N+](=O)[O-])cc1 (stereo unspecified) | > 100 µM | > 100 µM | > 100 µM | > 100 µM | > 100 µM | > 100 µM | > 100 µM | > 100 µM |  | 
COc1ccc(OC)c(NC(=O)C(=O)C(C(=O)c2ccccc2F)C2OC(=O)c3ccccc32)c1 (stereo unspecified) | > 100 µM | > 100 µM | > 100 µM |  | > 100 µM |  | 71.5 µM | 91.1 µM | > 100 µM | > 100 µM
C[N+]1(CCN=C=NC2CCCCC2)CCOCC1 | > 100 µM | > 100 µM | > 100 µM | > 100 µM | > 100 µM |  | > 100 µM | > 100 µM | > 100 µM | > 100 µM
CC(C)(C)c1cc(/C=C2/NC(=O)NC2=O)cc(C(C)(C)C)c1O | 28.2 µM | 30.8 µM | 29.9 µM | 36 µM | 28.8 µM |  | 26.4 µM | 32.8 µM | 32 µM | 31.4 µM
CCOC(=O)Cn1nnc2cc(Nc3c(C)[n+]([O-])c4cc(F)c(OCC)cc4[n+]3[O-])ccc21 | > 100 µM | > 100 µM | > 100 µM | > 100 µM | > 100 µM |  | > 100 µM | > 100 µM | > 100 µM | 
Cc1cnc2[nH]c(-c3cccc(F)c3)cc(=O)c2c1 | 2.59 µM | > 100 µM | > 100 µM | 0.0448 µM | > 100 µM | 0.027 µM | 0.108 µM |  | > 100 µM | > 100 µM
